Measurements as given in publication PMC7035281 (Nature Communications, 2020).

Tests used:
LeuT (LeuTWT) [1] = molecular target: T1, LeuT (LeuTWT) (Aquifex aeolicus, UniProt O67854, W8A); assay: scintillation proximity saturation binding, purified protein in DDM; X-ray structure […] Å
T1 construct: gene snf; full length, C-terminal thrombin site and 8xHis tag (pET16b), E. coli C41(DE3), purified in DDM; crystal of W8A a dimer in the asymmetric unit, residues 13-511 and 13-507 visible; smFRET variant from pQO18-TEV vector, His-tagged

LeuT (LeuTWT) [2] = molecular target: T2, LeuT (LeuTWT) (Aquifex aeolicus, UniProt O67854); assay: scintillation proximity saturation binding, purified protein in DDM
T2 construct: gene snf; full length, C-terminal thrombin site and 8xHis tag (pET16b), E. coli C41(DE3), purified in DDM; crystal of W8A a dimer in the asymmetric unit, residues 13-511 and 13-507 visible; smFRET variant from pQO18-TEV vector, His-tagged

SMILES: N[C@@H](Cc1ccccc1)C(=O)O [L-Phe]
- Kd (LeuT (LeuTWT) [1]): 796 ± 139 nM
- Kd (LeuT (LeuTWT) [2]): 898 ± 1130 nM
